The numbers were not newly measured in patent US9174839B2, “Methods and compositions for wound healing” (IMBED BIOSCIENCES, INC., priority 2008, dated 2015), which cites them from elsewhere.

The conditions of series [1]: incisional wounds.
For a further series, the system named is fibroblasts. The note with it: in vitro monolayer cell cultures.
For the next series, the system named is keratinocytes. The note with it: in vitro monolayer cell cultures.
The next series deals with lymphocytes. The note with it: in vitro.
Another series has as its system hepatocytes. The note with it: in vitro.

Regarding `CC1=C(/C=C/C(C)=C/C=C/C(C)=C/C(=O)O)C(C)(C)CCC1` [tretinoin], in series [1], the fibroblastic proliferation result is listed as “increased” and the production of collagen result is listed as “diminished”.

On to silver ions, for which the toxicity to fibroblasts result in the series with fibroblasts is given as “cytotoxic effects”. For the same compound, the toxicity to keratinocytes entry with keratinocytes is given as “cytotoxic effects”. In addition, the “cytotoxic effects on lymphocytes” value with lymphocytes is “cytotoxic effects”. Besides, the “cytotoxic effects on hepatocytes” value with hepatocytes is “cytotoxic effects”.
